Several values for one entry are separate records, joined by “and”; a condition that tells them apart may be missing. Identical values can stand only once.
These compounds were tested against human PD-L1 (Homo sapiens (Human), UniProt Q9NZQ7) (assay: T cell activation luciferase reporter cell culture system (T Cell Activation Assay)). Settings: luciferase reporter assay; PD-L1 aAPC/CHO-K1 cells with PD-1 effector Jurkat T cells.
Type: cell-based

Chain of human PD-L1 (Q9NZQ7 19-290): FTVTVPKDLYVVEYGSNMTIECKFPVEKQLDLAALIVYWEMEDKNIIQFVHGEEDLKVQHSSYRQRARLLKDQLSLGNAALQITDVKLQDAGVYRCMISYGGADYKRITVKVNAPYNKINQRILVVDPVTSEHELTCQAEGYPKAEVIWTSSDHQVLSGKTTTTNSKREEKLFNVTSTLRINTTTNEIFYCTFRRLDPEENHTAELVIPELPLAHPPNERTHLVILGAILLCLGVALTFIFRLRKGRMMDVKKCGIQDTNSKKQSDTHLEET

`COc1cc(-c2ncnc(-c3cccc(-c4ccc(CN[C@H]5C[C@@H](O)C5)c(OC)n4)c3Cl)c2Cl)ccc1CN[C@H]1C[C@@H](O)C1` [Example 592, (1s,3s)-3-(((6-(2-Chloro-3-(5-chloro-6-(4-((((1s,3s)-3-hydroxycyclobutyl)amino)methyl)-3-methoxyphenyl)pyrimidin-4-yl)phenyl)-2-methoxypyridin-3-yl)methyl)amino)cyclobutan-1-ol] and `COc1cc(-c2ncnc(-c3cccc(-c4ccc(CN[C@H]5C[C@H](O)C5)c(OC)n4)c3Cl)c2Cl)ccc1CN1CC2(CNC(=O)C2)C1` [Example 740] are within 1.5-fold of each other in EC50: 86.4 nM for the first, 80.4 nM for the second.

First: COc1cc(-c2nccc(-c3cccc(-c4ccc(CNC5CCCCC5)c(OC)n4)c3Cl)c2Cl)ccc1CNC1CCCCC1 [Example 524, N-((6-(2-Chloro-3-(3-chloro-2-(4-((cyclohexylamino)methyl)-3-methoxyphenyl)pyridin-4-yl)phenyl)-2-methoxypyridin-3-yl)methyl)cyclohexanamine]
Second: COc1cc(-c2nccc(-c3cccc(-c4ccc(CN[C@H]5CC[C@H](OC)CC5)c(OC)n4)c3Cl)c2Cl)ccc1CNC1CCN(C(C)=O)CC1 [Example 488, 1-(4-((4-(3-Chloro-4-(2-chloro-3-(6-methoxy-5-((((1r,4r)-4-methoxycyclohexyl)amino)methyl)pyridin-2-yl)phenyl)pyridin-2-yl)-2-methoxybenzyl)amino)piperidin-1-yl)ethan-1-one]
The EC50 of the first is 10-fold higher: 347 nM for the first, 34 nM for the second.

First: COc1cc(-c2ncnc(-c3cccc(-c4ccc(CNCCO)c(OC)n4)c3Cl)c2Cl)ccc1CNCCO [Example 581, 2-(((6-(2-chloro-3-(5-chloro-6-(4-(((2-hydroxyethyl)amino)methyl)-3-methoxyphenyl)pyrimidin-4-yl)phenyl)-2-methoxypyridin-3-yl)methyl)amino)ethan-1-ol]
Second: COc1cc(-c2ncnc(-c3cccc(-c4ccc(CN5CC6(CC(O)C6)C5)c(OC)n4)c3Cl)c2Cl)ccc1CN1CC2(CC(O)C2)C1 [Example 568, 2-((6-(2-chloro-3-(5-chloro-6-(4-((6-hydroxy-2-azaspiro[3.3]heptan-2-yl)methyl)-3-methoxyphenyl)pyrimidin-4-yl)phenyl)-2-methoxypyridin-3-yl)methyl)-2-azaspiro[3.3]heptan-6-ol]
The EC50 of the first is 4.3-fold lower: 43.1 nM for the first, 187 nM for the second.

Compared with `COc1cc(-c2nccc(-c3cccc(-c4cc(Cl)c(CNC[C@@H]5CCC(=O)N5)c(OC)n4)c3Cl)c2Cl)cc2c1CN(C[C@@H](C)O)CC2` [Cmpd 104, (S)-5-((((4-chloro-6-(2-chloro-3-(3-chloro-2-(2-((R)-2-hydroxypropyl)-8-methoxy-1,2,3,4-tetrahydroisoquinolin-6-yl)pyridin-4-yl)phenyl)-2-methoxypyridin-3-yl)methyl)amino)methyl)pyrrolidin-2-one], `COc1cc(-c2nccc(-c3cccc(-c4ccc(CNC[C@@H]5CCC(=O)N5)c(OC)n4)c3Cl)c2Cl)cc2c1CN(CC(=O)O)CC2` [Cmpd 151, (S)-2-(6-(3-chloro-4-(2-chloro-3-(6-methoxy-5-((((5-oxopyrrolidin-2-yl)methyl)amino)methyl)pyridin-2-yl)phenyl)pyridin-2-yl)-8-methoxy-3,4-dihydroisoquinolin-2(1H)-yl)acetic acid] is 2.5-fold higher in EC50: 30.7 nM for the first, 77.3 nM for the second. The first is the more potent here.

Compared with `COc1cc(-c2nccc(-c3cccc(NC(=O)c4ccc(CN5CC6(CNC(=O)C6)C5)cn4)c3Cl)c2Cl)ccc1CN1CC2(CNC(=O)C2)C1` [Example 672, N-(2-Chloro-3-(3-chloro-2-(3-methoxy-4-((7-oxo-2,6-diazaspiro[3.4]octan-2-yl)methyl)phenyl)pyridin-4-yl)phenyl)-5-((7-oxo-2,6-diazaspiro[3.4]octan-2-yl)methyl)picolinamide], `COc1nc(-c2ccnc(-c3cccc(NC(=O)c4cn(C)c(=O)n(C)c4=O)c3Cl)c2Cl)ccc1CN1CC2(CNC(=O)C2)C1` [Compound 719, N-(2-Chloro-3-(3′-chloro-6-methoxy-5-((7-oxo-2,6-diazaspiro[3.4]octan-2-yl)methyl)-[2,4′-bipyridin]-2′-yl)phenyl)-1,3-dimethyl-2,4-dioxo-1,2,3,4-tetrahydropyrimidine-5-carboxamide] is 1.9-fold higher in EC50: 217 nM for the first, 420 nM for the second. The first is the more potent here.

Going from `COc1cc(-c2ncnc(-c3cccc(-c4ccc(CNC5CCN(C(C)=O)CC5)c(OC)n4)c3Cl)c2OC)ccc1CNC1CCN(C(C)=O)CC1` [Example 717, 1-(4-(((6-(3-(6-(4-(((1-Acetylpiperidin-4-yl)amino)methyl)-3-methoxyphenyl)-5-methoxypyrimidin-4-yl)-2-chlorophenyl)-2-methoxypyridin-3-yl)methyl)amino)piperidin-1-yl)ethan-1-one] to `COc1cc(-c2nccc(-c3cccc(-c4ccc(CNC5CCN(C(C)=O)CC5)c(OC)n4)c3Cl)c2C#N)ccc1CNC1CCN(C(C)=O)CC1` [Example 404, 2-(4-(((1-Acetylpiperidin-4-yl)amino)methyl)-3-methoxyphenyl)-4-(3-(5-(((1-acetylpiperidin-4-yl)amino)methyl)-6-methoxypyridin-2-yl)-2-chlorophenyl)nicotinonitrile], the EC50 falls from no less than 10000 nM to 23.9 nM. The second is the more potent here.

Going from `COc1cc(-c2nccc(-c3cccc(-c4ccc(CNC[C@H]5CCC(=O)N5)c(OC)n4)c3Cl)c2Cl)ccc1CNC[C@H]1CCC(=O)N1` [Example 354, (R)-5-((((6-(2-Chloro-3-(3-chloro-2-(3-methoxy-4-(((((R)-5-oxopyrrolidin-2-yl)methyl)amino)methyl)phenyl)pyridin-4-yl)phenyl)-2-methoxypyridin-3-yl)methyl)amino)methyl)pyrrolidin-2-one] to `COc1cc(-c2nccc(-c3cccc(-c4ccc(CNC[C@@H]5CCC(=O)N5)c(OC)n4)c3Cl)c2Cl)ccc1CN1CCC[C@H]1C(=O)OC(C)C` [Cmpd 68, isopropyl (4-(3-chloro-4-(2-chloro-3-(6-methoxy-5-(((((S)-5-oxopyrrolidin-2-yl)methyl)amino)methyl)pyridin-2-yl)phenyl)pyridin-2-yl)-2-methoxybenzyl)-L-prolinate], the EC50 rises from 26.3 nM to 413 nM (16-fold).

`COc1nc(-c2cccc(-c3ccnc(-c4cc(OC)c5nc(CNC(C)C)nn5c4)c3Cl)c2Cl)ccc1CNC1CCN(C(C)=O)CC1` [Cmpd 644, 1-(4-(((6-(2-chloro-3-(3-chloro-2-(2-((isopropylamino)methyl)-8-methoxy-[1,2,4]triazolo[1,5-a]pyridin-6-yl)pyridin-4-yl)phenyl)-2-methoxypyridin-3-yl)methyl)amino)piperidin-1-yl)ethan-1-one] and `COc1cc(-c2nccc(-c3cccc(-c4ccc(CNC5CCN(C(=O)C(C)C)CC5)c(OC)n4)c3Cl)c2Cl)ccc1CNC1CCN(C(=O)C(C)C)CC1` [Example 346, 1-(4-(((6-(2-Chloro-3-(3-chloro-2-(4-(((1-isobutyrylpiperidin-4-yl)amino)methyl)-3-methoxyphenyl)pyridin-4-yl)phenyl)-2-methoxypyridin-3-yl)methyl)amino)piperidin-1-yl)-2-methylpropan-1-one] are within 1.5-fold of each other in EC50: 84.8 nM for the first, 70.5 nM for the second.

Compared with `COc1cc(-c2nccc(-c3cccc(-c4ccc(CN5CC6(CCOCC6)C5)c(OC)n4)c3Cl)c2Cl)ccc1CNC1CCOCC1` [Example 531, N-(4-(4-(3-(5-((7-oxa-2-azaspiro[3.5]nonan-2-yl)methyl)-6-methoxypyridin-2-yl)-2-chlorophenyl)-3-chloropyridin-2-yl)-2-methoxybenzyl)tetrahydro-2H-pyran-4-amine], `COc1cc(-c2nccc(-c3cccc(-c4ccc(CNC5CC6(COC6)C5)c(OC)n4)c3Cl)c2Cl)ccc1CNC1CC2(COC2)C1` (centres unmarked) [Example 365, N-(4-(4-(3-(5-(((2-Oxaspiro[3.3]heptan-6-yl)amino)methyl)-6-methoxypyridin-2-yl)-2-chlorophenyl)-3-chloropyridin-2-yl)-2-methoxybenzyl)-2-oxaspiro[3.3]heptan-6-amine] is 2.1-fold lower in EC50: 41.3 nM for the first, 19.9 nM for the second. The second is the more potent here.

First: COc1cc(-c2nccc(-c3cccc(-c4ccc(CNC5CCN(c6ncccc6Cl)CC5)c(OC)n4)c3Cl)c2Cl)ccc1CNC1CCN(c2ncccc2Cl)CC1 [Example 445, N-((6-(2-Chloro-3-(3-chloro-2-(4-(((1-(3-chloropyridin-2-yl)piperidin-4-yl)amino)methyl)-3-methoxyphenyl)pyridin-4-yl)phenyl)-2-methoxypyridin-3-yl)methyl)-1-(3-chloropyridin-2-yl)piperidin-4-amine]
Second: COCCC(=O)N1CCC(NCc2ccc(-c3cccc(-c4ccnc(-c5ccc(CN6CCC(O)CC6)c(OC)c5)c4Cl)c3Cl)nc2OC)CC1 [Example 616, 1-(4-(((6-(2-Chloro-3-(3-chloro-2-(4-((4-hydroxypiperidin-1-yl)methyl)-3-methoxyphenyl)pyridin-4-yl)phenyl)-2-methoxypyridin-3-yl)methyl)amino)piperidin-1-yl)-3-methoxypropan-1-one]
The EC50 of the first is higher: no less than 10000 nM for the first, 36 nM for the second.

`COc1cc(-c2nccc(-c3cccc(-c4ccc(CNC[C@@H]5CCC(=O)N5)c(OC)n4)c3Cl)c2Cl)cc2c1CNCC2` [Cmpd 7, (S)-5-((((6-(2-chloro-3-(3-chloro-2-(8-methoxy-1,2,3,4-tetrahydroisoquinolin-6-yl)pyridin-4-yl)phenyl)-2-methoxypyridin-3-yl)methyl)amino)methyl)pyrrolidin-2-one] and `COc1nc(-c2cccc(-c3ccnc(-c4ccc(CN5CC6(C5)CN(C(C)=O)C6)c(OC(F)F)c4)c3Cl)c2Cl)ccc1CN1CC2(C1)CN(C(C)=O)C2` [Example 598, 1-(6-((6-(3-(2-(4-((6-Acetyl-2,6-diazaspiro[3.3]heptan-2-yl)methyl)-3-(difluoromethoxy)phenyl)-3-chloropyridin-4-yl)-2-chlorophenyl)-2-methoxypyridin-3-yl)methyl)-2,6-diazaspiro[3.3]heptan-2-yl)ethan-1-one] are within 1.5-fold of each other in EC50: 53.5 nM for the first, 36.8 nM for the second.

`COc1cc(-c2nccc(-c3cccc(-c4ccc(CNC[C@@H]5CCC(=O)N5)c(OC)n4)c3Cl)c2Cl)cc2c1CN(CCO)CC2` [Cmpd 54, (S)-5-((((6-(2-chloro-3-(3-chloro-2-(2-(2-hydroxyethyl)-8-methoxy-1,2,3,4-tetrahydroisoquinolin-6-yl)pyridin-4-yl)phenyl)-2-methoxypyridin-3-yl)methyl)amino)methyl)pyrrolidin-2-one] was tested, and the EC50 was 24.3 nM and 21.5 nM.

From US20240246964A1 (Arbutus Biopharma Corporation, priority 2021, published 2024)
